Reference: publication PMC7651859, “Identification of 6-amino-1H-pyrazolo[3,4-d]pyrimidines with in vivo efficacy against visceral leishmaniasis” (RSC Medicinal Chemistry, 2020)
≈ marks a conversion by molar mass, not a printed value.

How the values were obtained:
[1] = CAD kinetic aqueous solubility; type: physicochemical; conditions: pH 7.4, pH7.4 phosphate buffered saline
Description: CAD Aqueous Solubility 11
5µl of 10mM DMSO stock solution is diluted to 100 µ l with pH7.4 phosphate buffered saline,
equilibrated for 1 hour at room temperature and filtered through Millipore MultiscreenHTS-PCF

L. donovani amastigotes = test: Ld InMac intramacrophage Leishmania donovani assay; type: cell-based; conditions: for EC50: Leishmania donovani, L. donovani amastigotes in THP-1 cells, mean of n ≥ 3, read-out: Ld InMac pEC50 (converted); for loss of potency (less active) versus comparator compound: versus matched comparator
Excerpt: (§1) For the identification of DDD853651/GSK3186899, which contained a trans-1,4-cyclohexyldiamine, a key strategy was to optimise the balance between potency in the intracellular Leishmania assay (L. donovani in THP-1 cells, referred to as Ld InMac assay[9]) and solubility.[10] In that case, we focused on 2 (Table 1), where the sulfonamide was required for potency but was poorly soluble. […] To this end, we examined a 4-aminopiperidine central unit with both sulfonamide and amide substituents (Table 1). […] We therefore selected 4 as a suitable start-point for further chemistry. […] We noted that either lengthening the linker to the aromatic ring, or removing it, led to a loss of activity (6 and 7 respectively).
(§2) Intramacrophage Leishmania donovani Assay

THP-1 cells = test: THP-1 host cell toxicity readout of the Ld InMac assay; type: cell-based; conditions: Homo sapiens; host THP-1 cells; mean of n ≥ 3; read-out: THP-1 pEC50 (converted)
Excerpt: as §1, §2

[2] = Stability in mouse liver microsomes (intrinsic clearance); type: in vitro ADME; conditions: mouse liver microsomal intrinsic clearance, 0.5 μM
Description: Stability in Microsomes 10
Test compound (0.5 μM) was incubated with female CD1 mouse (Xenotech) liver microsomes and their action started with addition of excess NADPH (8 mg/mL 50 mM potassium phosphate buffer, pH 7.4). Immediately, at time zero, then at 3, 6, 9, 15, and 30 min, an aliquot (50 μL) of the incubation mixture was removed and mixed with acetonitrile (100 μL) to stop the reaction.
Internal standard was added to all samples, the samples centrifuged to sediment precipitated protein, and the plates then sealed prior to UPLC-MS/MS analysis using a Xevo TQs micro (Waters Corporation, USA). XLfit (IDBS, UK) was used to calculate the exponential decay and consequently the rate constant (k) from the ratio of the peak area of test compound to internal standard at each time point. The rate of intrinsic clearance (Cl i) of each test compound was then calculated using the equation Cl i (mL/min/g liver) = k × V × microsomal protein yield, where V (mL/mg protein) is the incubation volume/mg protein added and […]
microsomal protein yield is taken as 52.5 mg protein/g liver. Verapamil (0.5 μM) was used as a positive control to confirm acceptable assay performance. […]

Row | Structure (SMILES) | solubility at 1 h [1] [µM] | EC50 (L. donovani amastigotes) [µM] | EC50 (THP-1 cells) [µM] | loss of potency (less active) versus comparator compound (L. donovani amastigotes; Ld InMac) [fold] | Cli mouse [2] [ml min^–1 g^–1] | more active than comparator compound (L. donovani amastigotes; Ld InMac, 4 versus 3) [fold]
1 | CC(C)Oc1n[nH]c2nc(NC3CCN(C(=O)Cc4ccc(F)cc4F)CC3)ncc12 [Compound 16] | 33 (≈ 14.2 µg/mL) | 6.31 | > 50.1 |  |  | 
2 | CC(C)Cc1nn(C)c2nc(NC3CCN(C(=O)Cc4ccc(F)cc4F)CC3)ncc12 [Compound 24] |  | > 50.1 | > 50.1 | > 10 |  | 
3 | O=C(Cc1ccc(F)cc1F)N1CCC(Nc2ncc3c(-c4ccccc4)n[nH]c3n2)CC1 [Compound 17] | < 1 | 0.316 | > 50.1 |  | 7.2 | 
4 | COc1ccccc1-c1n[nH]c2nc(NC3CCN(C(=O)Cc4ccc(F)c(F)c4)CC3)ncc12 [Compound 43] | 53 (≈ 25.4 µg/mL) | 0.0251 | 15.8 |  | 6.3 | 
5 | CC(C)Cc1n[nH]c2nc(NC3CCN(S(=O)(=O)Cc4ccccc4)CC3)ncc12 [Compound 5] | 10 (≈ 4.29 µg/mL) | 12.6 | > 50.1 | > 10 | >50 | 
6 | O=C(Cc1ccc(F)cc1F)N1CCC[C@H](Nc2ncc3c(-c4ccccn4)n[nH]c3n2)C1 [Compound 29] |  | 12.6 | > 50.1 |  |  | 
7 | O=C(Cc1ccc(F)cc1F)N1CCC(CNc2ncc3c(-c4ccccn4)n[nH]c3n2)CC1 [Compound 34] |  | > 50.1 | > 50.1 |  |  | 
8 | CC(C)Cc1n[nH]c2nc(N(C)C3CCN(C(=O)Cc4ccc(F)cc4F)CC3)ncc12 [Compound 22] |  | > 50.1 | > 50.1 | > 10 |  | 
9 | CCCCCCCCCCCCCCCCOP(=O)([O-])OCC[N+](C)(C)C [miltefosine, reference compound] |  | 0.794 |  |  |  | 
10 | O=C(Cc1ccc(F)cc1F)N1CCC(Nc2ncc3c(-c4ccccn4)n[nH]c3n2)CC1 [Compound 18] | 23 (≈ 10.3 µg/mL) | 0.794 | > 50.1 |  | 6.7 | 
11 | COc1ccccc1C(=O)c1cnc(NC2CCN(C(=O)Cc3ccc(F)cc3F)CC2)nc1N [Compound 27] |  | 6.31 | 10 |  |  | 
12 | CC(C)Cc1n[nH]c2nc(NC3CCN(C(=O)CCc4ccccc4)CC3)ncc12 [Compound 6] |  | 20 | > 50.1 |  |  | 
13 | COc1ccccc1-c1n[nH]c2nc(NC3CCN(C(=O)N4CCOCC4)CC3)ncc12 [Compound 40] | 79 (≈ 34.6 µg/mL) | 2 | > 50.1 |  | 2 | 
14 | COc1ccccc1-c1c[nH]c2nc(NC3CCN(C(=O)Cc4ccc(F)cc4F)CC3)ncc12 [Compound 26] |  | > 50.1 | > 50.1 | > 10 |  | 
15 | O=C(CC1CC1)N1CCC(Nc2ncc3c(C4CCOCC4)n[nH]c3n2)CC1 [Compound 44] | ≥ 496 | 7.94 | > 50.1 |  | 0.8 | 
16 | C[C@@H]1[C@H](O)[C@@H](C)/C=C/C=C/C=C/C=C/C=C/C=C/C=C/[C@H](O[C@@H]2O[C@H](C)[C@@H](O)[C@H](N)[C@@H]2O)C[C@@H]2O[C@](O)(C[C@@H](O)C[C@@H](O)[C@H](O)CC[C@@H](O)C[C@@H](O)CC(=O)O[C@H]1C)C[C@H](O)[C@H]2C(=O)O [amphotericin B, reference compound] |  | 0.2 |  |  |  | 
17 | COc1ccccc1-c1n[nH]c2nc(OC3CCN(C(=O)Cc4ccc(F)cc4F)CC3)ncc12 [Compound 23] |  | 20 | > 50.1 | > 10 |  | 
18 | O=C(CC1CC1)N1CCC(Nc2ncc3c(N4CCOCC4)n[nH]c3n2)CC1 [Compound 46] |  | 15.8 | > 50.1 |  |  | 
19 | O=C(Cc1ccc(F)cc1F)N1CCC(Nc2ncc3c(CN4CCOCC4)n[nH]c3n2)CC1 [Compound 14] |  | 25.1 | > 50.1 |  | <0.5 | 
20 | CC(C)(CNC(=O)Cc1ccc(F)cc1F)Nc1ncc2c(-c3ccccn3)n[nH]c2n1 [Compound 36] |  | > 50.1 | > 50.1 |  |  | 
21 | CC(C)Cc1noc2nc(NC3CCN(C(=O)Cc4ccc(F)cc4F)CC3)ncc12 [Compound 25] |  | > 50.1 | > 50.1 | > 10 |  | 

Row | Structure (SMILES) | solubility at 1 h [1] [µM] | EC50 (L. donovani amastigotes) [µM] | EC50 (THP-1 cells) [µM] | loss of potency (less active) versus comparator compound (L. donovani amastigotes; Ld InMac) [fold] | Cli mouse [2] [ml min^–1 g^–1] | more active than comparator compound (L. donovani amastigotes; Ld InMac, 4 versus 3) [fold]
22 | CC(C)Cc1n[nH]c2nc(NC3CCN(C(=O)Cc4ccc(Cl)cc4Cl)CC3)ncc12 [Compound 9] | 26 (≈ 12 µg/mL) | 10 | > 50.1 |  | 30 | 
23 | COc1ccccc1-c1n[nH]c2nc(NCC3CN(C(=O)Cc4ccc(F)cc4F)C3)ncc12 [Compound 35] |  | > 50.1 | > 50.1 |  |  | 
24 | COc1ccccc1-c1n[nH]c2nc(NC3CCN(S(=O)(=O)CCC(F)(F)F)CC3)ncc12 [Compound 37] | < 1 | 0.2 | > 50.1 |  | 14 | 
25 | O=C(Cc1ccc(F)c(F)c1)N1CCC(Nc2ncc3c(C4CCOCC4)n[nH]c3n2)CC1 [Compound 47] | ≥ 429 | 1 | > 50.1 |  | 3.1 | 
26 | CC(C)Cc1n[nH]c2nc(NC3CCN(C(=O)c4ccccc4)CC3)ncc12 [Compound 7] | 291 (≈ 110 µg/mL) | > 50.1 | > 50.1 |  | 7 | 
27 | COc1ccccc1-c1n[nH]c2nc(N[C@H]3CCC[C@@H](NC(=O)Cc4ccc(F)cc4F)C3)ncc12 [Compound 31] |  | 31.6 | 25.1 |  |  | 
28 | CC(C)Cc1n[nH]c2nc(NC3CCN(C(=O)Cc4ccc(F)cc4F)CC3)ncc12 [Compound 8] | 26 (≈ 11.1 µg/mL) | 1.58 | > 50.1 |  | 12 | 
29 | O=C(Cc1ccc(F)cc1F)N1CCC[C@@H](Nc2ncc3c(-c4ccccn4)n[nH]c3n2)C1 [Compound 30] |  | > 50.1 | > 50.1 |  |  | 
30 | CC(C)(C)Cc1n[nH]c2nc(NC3CCN(C(=O)Cc4ccc(F)cc4F)CC3)ncc12 [Compound 11] | 27 (≈ 11.9 µg/mL) | > 50.1 | > 50.1 |  | 22.0 | 
31 | CC(C)Cc1n[nH]c2nc(N[C@H]3CC[C@H](NC(=O)Cc4ccccc4)CC3)ncc12 [Compound 3] | 51 (≈ 20.7 µg/mL) | > 50.1 | > 50.1 |  |  | 
32 | Cn1nccc1-c1n[nH]c2nc(NC3CCN(C(=O)Cc4ccc(F)cc4F)CC3)ncc12 [Compound 19] | 30 (≈ 13.6 µg/mL) | 3.16 | 20 | 10 | 3.3 | 
33 | COc1ccccc1-c1n[nH]c2nc(N[C@H]3CCC[C@H](NC(=O)Cc4ccc(F)cc4F)C3)ncc12 [Compound 32] |  | 15.8 | 31.6 |  |  | 
34 | CCOC(=O)N1CCC(Nc2ncc3c(-c4ccccc4OC)n[nH]c3n2)CC1 [Compound 38] | 24 (≈ 9.51 µg/mL) | 0.501 | 39.8 |  | 14 | 
35 | COc1ccccc1-c1n[nH]c2nc(NC3CCN(C(=O)OCc4ccccc4)CC3)ncc12 [Compound 39] |  | 0.398 | > 50.1 |  | 9 | 
36 | CC(C)Cc1n[nH]c2nc(NC3CCN(C(=O)C(C)c4ccccc4)CC3)ncc12 (stereo not shown) [Compound 10] | 140 (≈ 56.9 µg/mL) | 5.01 | > 50.1 |  |  | 
37 | O=C(Cc1ccc(F)cc1F)N1CCC(Nc2ncc3c(C4CCOCC4)n[nH]c3n2)CC1 [Compound 13] | 78 (≈ 35.6 µg/mL) | 1 | > 50.1 |  | 0.5 | 
38 | COc1ncccc1-c1n[nH]c2nc(NC3CCN(C(=O)Cc4ccc(F)cc4F)CC3)ncc12 [Compound 21] | 25 (≈ 12 µg/mL) | 0.0794 | > 50.1 |  | 15 | 
39 | CC(C)Cc1n[nH]c2nc(NC3CCN(C(=O)Cc4ccccc4)CC3)ncc12 [Compound 4] | 59 (≈ 23.2 µg/mL) | 7.94 | > 50.1 |  | 18 | > 10
40 | COc1ccccc1C(=O)c1cnc(NC2CCN(C(=O)Cc3ccc(F)cc3F)CC2)nc1 [Compound 28] |  | 6.31 | > 50.1 |  |  | 
41 | O=C(CC1CC1)N1CCC(Nc2ncc3c(-c4ccccn4)n[nH]c3n2)CC1 [Compound 45] | ≥ 392 | 5.01 | > 50.1 |  |  | 
42 | COc1ccccc1-c1n[nH]c2nc(NC3(C)CCN(C(=O)Cc4ccc(F)cc4F)CC3)ncc12 [Compound 33] |  | 3.98 | 39.8 |  |  | 
